Laboratory results from EP4151202A1, “COMPOSITION FOR PREVENTING AND/OR TREATING WHITE STRETCH MARKS” (LSI Silderma Ltd, priority 2021, dated 2023).

Test system: vergetures blanches
Assay: Tolerance of cutaneous application (side effects) on skin with white stretch marks
Assay type: in vivo, individus
Conditions: as active ingredient together with the excipients of formule 1
Text: Pour évaluer l'efficacité et la tolérance d'application de la composition de l'invention, 27 individus ont appliqué, matin et soir, pendant 90 jours, sur une zone de peau nettoyée avec vergetures blanches existantes, soit une composition selon l'invention, soit une composition « placebo ».
Chez chaque individu, la composition « placebo » a été appliquée sur une première moitié de la zone constituée par les vergetures blanches, et la composition de l'invention sur l'autre moitié de ladite zone. L'application cutanée sur les différentes zones de vergetures blanches a été accompagnée d'un léger massage pour favoriser la pénétration dans la peau de chacune des deux compositions. En moyenne, il a été appliqué entre 0,02 et 0,04 mL de composition / cm^2 de peau avec vergetures blanches.
On entend par « effet secondaire » des brûlures, irritations, démangeaisons ou tout autre type de modification de la peau au niveau de la surface d'application de la composition de l'invention. Ainsi, le palmitoyl-tripeptide-5, en tant que principe actif dermatologique, en association avec les excipients, est bien toléré en application cutanée.

palmitoyl-tripeptide-5
tolérance en application cutanée: bien toléré
